{
  "source": "patent US6417229B1",
  "about": "“α-sulfonylamino hydroxamic acid inhibitors of matrix metalloproteinases for the treatment of peripheral or central nervous system disorders” (Pfizer Inc, priority 1999, dated 2002)",
  "origin": "cited, not measured here",
  "key": {"[1]": {"test_system": "Experimental Autoimmune Neuritis (EAN)", "settings": "Redford et al. 1997"}, "[2]": {"test_system": "Experimental Autoimmune Encephelomyelitis (EAE)", "settings": "mice with EAE; Gijbels 1994"}, "[3]": {"test_system": "MMP-9 induction by Aβ", "settings": "rat microglia; Gottschall 1996"}},
  "data": [
    {"smiles": "C=CC[C@H](C(=O)NO)[C@@H](CC(C)C)C(=O)N[C@@H](Cc1ccccc1)C(=O)NC", "note": "[BB-1101]", "values": [
      {"measurement": "effect on EAN", "setting": "[1]", "result": "attenuates Experimental Autoimmune Neuritis (EAN)"}
    ]},
    {"smiles": "CNC(=O)[C@H](Cc1c[nH]c2ccccc12)NC(=O)[C@@H](CC(=O)NO)CC(C)C", "note": "[GM6001]", "values": [
      {"measurement": "effect on EAE", "setting": "[2]", "result": "suppress the development of, or reverse established, EAE"}
    ]},
    {"smiles": "COc1ccc2c(c1)c(CC(=O)O)c(C)n2C(=O)c1ccc(Cl)cc1", "note": "[indomethacin]", "values": [
      {"measurement": "inhibition of MMP-9 induction by Aβ", "setting": "[3]", "result": "can be inhibited"}
    ]}
  ]
}
